Assay results reported in PubChem BioAssay AID248 (DTP/NCI, 2004).
“And” between values parts separate entries of the source, which are not always exact repeats. Equal values may be shown once. Toxic doses and inconclusive results are not listed. Rule as the data show it: active = T/C of 150% or more; inactive = T/C below 125%. Peptide text beside a SMILES is read from it.

Test system: L1210 leukemia ip in BDF1 mice, survival T/C
Experiment: NCI In Vivo Anticancer Drug Screen. Data for tumor model L1210 Leukemia (intraperitoneal) in B6D2F1 (BDF1) mice
Conditions: endpoint: mean survival time, higher = longer survival
Outline: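 Tumor was transplanted into mice, which were then dosed with test compound or vehicle alone. Survival was recorded for each group, and the treated figure was expressed relative to the control figure.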

[1] = dose: 100.0 mg/kg/injection, schedule: Q01DX001 (ip), vehicle: other
[2] = dose: 200.0 mg/kg/injection, schedule: Q01DX001 (ip), vehicle: other
[3] = dose: 400.0 mg/kg/injection, schedule: Q01DX001 (ip), vehicle: other
[4] = dose: 100.0 mg/kg/injection, schedule: Q04DX002 (ip), vehicle: Klucel (hydroxypropylcellulose) (HPC)
[5] = dose: 50.0 mg/kg/injection, schedule: Q01DX001 (ip), vehicle: carboxymethylcellulose (CMC)
[6] = dose: 100.0 mg/kg/injection, schedule: Q01DX001 (ip), vehicle: carboxymethylcellulose (CMC)
[7] = dose: 200.0 mg/kg/injection, schedule: Q01DX001 (ip), vehicle: carboxymethylcellulose (CMC)
[8] = dose: 100.0 mg/kg/injection, schedule: Q01DX001 (ip), vehicle: saline
[9] = dose: 200.0 mg/kg/injection, schedule: Q01DX001 (ip), vehicle: saline
[10] = dose: 400.0 mg/kg/injection, schedule: Q01DX001 (ip), vehicle: saline
[11] = dose: 100.0 mg/kg/injection, schedule: Q04DX003 (ip), vehicle: Klucel (hydroxypropylcellulose) (HPC)
[12] = dose: 200.0 mg/kg/injection, schedule: Q04DX003 (ip), vehicle: Klucel (hydroxypropylcellulose) (HPC)
[13] = dose: 400.0 mg/kg/injection, schedule: Q04DX003 (ip), vehicle: Klucel (hydroxypropylcellulose) (HPC)
[14] = dose: 100.0 mg/kg/injection, schedule: Q01DX009 (ip), vehicle: saline with Tween-80
[15] = dose: 100.0 mg/kg/injection, schedule: Q04DX003 (ip), vehicle: saline with Tween-80
[16] = dose: 200.0 mg/kg/injection, schedule: Q01DX009 (ip), vehicle: saline with Tween-80
[17] = dose: 200.0 mg/kg/injection, schedule: Q04DX003 (ip), vehicle: saline with Tween-80
[18] = dose: 400.0 mg/kg/injection, schedule: Q01DX009 (ip), vehicle: saline with Tween-80
[19] = dose: 400.0 mg/kg/injection, schedule: Q04DX003 (ip), vehicle: saline with Tween-80
[20] = dose: 100.0 mg/kg/injection, schedule: Q01DX009 (ip), vehicle: Klucel (hydroxypropylcellulose) (HPC)
[21] = dose: 200.0 mg/kg/injection, schedule: Q04DX002 (ip), vehicle: Klucel (hydroxypropylcellulose) (HPC)
[22] = dose: 400.0 mg/kg/injection, schedule: Q04DX002 (ip), vehicle: Klucel (hydroxypropylcellulose) (HPC)
[23] = dose: 400.0 mg/kg/injection, schedule: Q01DX001 (ip), vehicle: carboxymethylcellulose (CMC)
[24] = dose: 25.0 mg/kg/injection, schedule: Q01DX009 (ip), vehicle: saline
[25] = dose: 50.0 mg/kg/injection, schedule: Q01DX009 (ip), vehicle: saline
[26] = dose: 100.0 mg/kg/injection, schedule: Q04DX003 (ip), vehicle: saline
[27] = dose: 200.0 mg/kg/injection, schedule: Q04DX003 (ip), vehicle: saline
[28] = dose: 12.5 mg/kg/injection, schedule: Q04DX003 (ip), vehicle: saline
[29] = dose: 25.0 mg/kg/injection, schedule: Q04DX003 (ip), vehicle: saline
[30] = dose: 50.0 mg/kg/injection, schedule: Q04DX003 (ip), vehicle: saline

Measured: T/C

CCCN(CCC)[N+](=O)[O-]
inactive: [1] 98 % of control | dose: 100.0 mg/kg/injection, schedule: Q04DX003 (ip), vehicle: other 104 % of control | [2] 93 % of control | dose: 200.0 mg/kg/injection, schedule: Q04DX003 (ip), vehicle: other 101 % of control | [3] 97 % of control | dose: 400.0 mg/kg/injection, schedule: Q04DX003 (ip), vehicle: other 98 % of control

NCc1cccc(NC(=O)COc2cccc(Cl)c2)c1
inactive: dose: 25.0 mg/kg/injection, schedule: Q04DX002 (ip), vehicle: Klucel (hydroxypropylcellulose) (HPC) 100 % of control | dose: 50.0 mg/kg/injection, schedule: Q04DX002 (ip), vehicle: Klucel (hydroxypropylcellulose) (HPC) 111 % of control | [4] 100 % of control

CC(C)C(NC(=O)C(CCC(=O)O)NC(=O)C(N)Cc1ccc(O)cc1)C(=O)NCC(=O)NC(Cc1ccc(O)cc1)C(=O)NC(CCC(=O)O)C(=O)NC(C(=O)NCC(=O)NCC(=O)O)C(C)C (stereo not given) (H-YEVGYEVGG-OH; configuration not given here)
inactive: [5] 91 % of control | [6] 96 % of control | [7] 91 % of control

COC(=O)c1cc(=O)nc2n1C1OC(CO)C(O)C1O2 (stereo not given)
inactive: [8] 95 % of control | [9] 101 % of control | [10] 93 % of control

CCCCOP(=O)(C=C(C(C)=O)C(C)=O)OCCCC
inactive: [11] 95 % of control | [12] 119 % of control | [13] 97 % of control

O=C(/C=C/c1ccc(Br)cc1)c1ccc(Cl)cc1
inactive: [14] 96 % of control | [15] 96 % of control | [16] 96 % of control | [17] 91 % of control | [18] 94 % of control | [19] 92 % of control

Cc1cccc(NC(=O)Nc2cccc(Cl)c2Cl)n1
inactive: [20] 92 % of control | [4] 89 % of control | dose: 200.0 mg/kg/injection, schedule: Q01DX009 (ip), vehicle: Klucel (hydroxypropylcellulose) (HPC) 92 % of control | [21] 92 % of control | [22] 103 % of control

NC(=O)c1ccccc1Cl
inactive: dose: 100.0 mg/kg/injection, schedule: Q01DX001 (ip), vehicle: saline with Tween-80 104 % of control | dose: 100.0 mg/kg/injection, schedule: Q01DX009 (ip), vehicle: saline sonified 105 % of control | dose: 200.0 mg/kg/injection, schedule: Q01DX001 (ip), vehicle: saline with Tween-80 102 % of control | dose: 200.0 mg/kg/injection, schedule: Q01DX009 (ip), vehicle: saline sonified 89 % of control | dose: 400.0 mg/kg/injection, schedule: Q01DX001 (ip), vehicle: saline with Tween-80 101 % of control | dose: 400.0 mg/kg/injection, schedule: Q01DX009 (ip), vehicle: saline sonified 100 % of control

COc1cccc(/C=C/c2cnc3ccccc3n2)c1OC
inactive: dose: 50.0 mg/kg/injection, schedule: Q01DX009 (ip), vehicle: Klucel (hydroxypropylcellulose) (HPC) 104 % of control | [20] 92 % of control

O=C1C=CC(=O)N1C(=O)NC(I)NC(=O)N1C(=O)C=CC1=O
inactive: [6] 94 % of control | [7] 98 % of control | [23] 100 % of control

OC1CCC(c2ccccc2)C1 (stereo not given)
inactive: dose: 75.0 mg/kg/injection, schedule: Q01DX001 (ip), vehicle: other 98 % of control | dose: 150.0 mg/kg/injection, schedule: Q01DX001 (ip), vehicle: other 97 % of control | dose: 300.0 mg/kg/injection, schedule: Q01DX001 (ip), vehicle: other 106 % of control

O=C(Nc1ccc2c(c1)OCO2)O/N=C\c1ccccc1
inactive: [14] 89 % of control | [15] 103 % of control | [16] 91 % of control | [17] 97 % of control | [18] 91 % of control | [19] 89 % of control

CC(C)(C)N(O)C(=O)NCCCl
inactive: dose: 100.0 mg/kg/injection, schedule: Q01DX001 (ip), vehicle: Klucel (hydroxypropylcellulose) (HPC) 97 % of control | dose: 200.0 mg/kg/injection, schedule: Q01DX001 (ip), vehicle: Klucel (hydroxypropylcellulose) (HPC) 92 % of control | dose: 400.0 mg/kg/injection, schedule: Q01DX001 (ip), vehicle: Klucel (hydroxypropylcellulose) (HPC) 97 % of control

CC(C)(C)N1OC1c1cccc(Cl)c1 (stereo not given)
inactive: [1] 95 % of control | [11] 98 % of control | [2] 94 % of control | [12] 93 % of control | [3] 97 % of control | [13] 101 % of control

CN(N=O)c1ccc(/C=C/c2ccnc3ccccc23)cc1
inactive: [5] 98 % of control | [6] 93 % of control | [7] 93 % of control | [23] 91 % of control

O=C(Nc1ccccc1)Oc1ccc(Cl)cc1Cl
inactive: [4] 104 % of control | [21] 110 % of control | [22] 96 % of control

COC(=O)C(Br)CBr (stereo not given)
inactive: [24] 100 % of control | [25] 105 % of control | dose: 100.0 mg/kg/injection, schedule: Q01DX009 (ip), vehicle: saline 98 % of control and 105 % of control | [26] 102 % of control | [27] 116 % of control

CCCCCCCCCCCC(=O)NC(=S)Nc1cc(OC)ccc1OC
inactive: [4] 104 % of control | [21] 111 % of control | [22] 93 % of control

CCN(CC)C(=O)N1C2CCC1CN(C)C2
inactive: dose: 12.5 mg/kg/injection, schedule: Q01DX009 (ip), vehicle: saline 91 % of control | [28] 103 % of control | [24] 95 % of control | [29] 105 % of control | [25] 86 % of control | [30] 89 % of control

CCCC/C=C/C#N
inactive: dose: 75.0 mg/kg/injection, schedule: Q01DX009 (ip), vehicle: saline 100 % of control | [8] 106 % of control | [26] 98 % of control | dose: 150.0 mg/kg/injection, schedule: Q01DX009 (ip), vehicle: saline 97 % of control | [9] 96 % of control | [27] 101 % of control | [10] 92 % of control | dose: 400.0 mg/kg/injection, schedule: Q04DX003 (ip), vehicle: saline 94 % of control

COc1ccc(C(=O)CBr)c(OC)c1
inactive: [28] 104 % of control | dose: 25.0 mg/kg/injection, schedule: Q01DX009 (ip), vehicle: saline with Tween-80 96 % of control | [29] 97 % of control | [30] 93 % of control | [15] 97 % of control

O=C(OCC(OC(=O)c1ccccc1)C(OC(=O)c1ccccc1)C(OC(=O)c1ccccc1)C(OC(=O)c1ccccc1)c1cnn(-c2ccccc2)n1)c1ccccc1 (stereo not given)
inactive: dose: 100.0 mg/kg/injection, schedule: Q04DX003 (ip), vehicle: acetone 87 % of control | dose: 200.0 mg/kg/injection, schedule: Q04DX003 (ip), vehicle: acetone 100 % of control | dose: 400.0 mg/kg/injection, schedule: Q04DX003 (ip), vehicle: acetone 90 % of control
